ChEMBL document CHEMBL3430912, “GSK Tres Cantos Anti-Kinetoplastid Screening (TCAKS) Data”

Assays:
Leishmania donovani [1] = assay: GSK_TCAKS: pIC50 Leishmania donovani Imaging: Infected Macrophages. Assay plates (384-well) were prepared by adding 250nL of compound to each well. For single shot assay, the final compound concentration was 5 uM. […] Automated image analysis was performed with a script developed on Acapella High Content Imaging and Analysis Software (PerkinElmer). Output: Percent of infected macrophage cells were reported for each well.; assay type: functional, organism-based, Homo sapiens; conditions: THP-1
Leishmania donovani [2] = assay: GSK_TCAKS: pIC50 Leishmania donovani Imaging: THP-1 Host Macrophages. Assay plates (384-well) were prepared by adding 250nL of compound to each well. For single shot assay, the final compound concentration was 5 uM. […] Automated image analysis was performed with a script developed on Acapella High Content Imaging and Analysis Software (PerkinElmer). Output: THP-1 cell count were reported for each well.; assay type: functional, organism-based, Homo sapiens
[3] = GSK_TCAKS: pIC50 HepG2 human cell line viability assay using luminiscence. […] Seeding density was checked to ensure that new mono-layers were not more than 50% confluent at the time of harvesting. Cell suspension was added to 500 mL of the same medium at a final density of 1.2 * 10^5 cells/mL. This cell suspension was dispensed (25 uL, 3000 cells per well) into 384-well clear-bottom plates using a Multidrop Combi dispenser. Prior to addition of the cell suspension, the screening compounds (250 nL) were pre-dispensed into the plates with an Echo liquid handler. Plates were incubated for 48 h at 37C, 5% CO2. After incubation, plates equilibrated at room temperature for 30 min before proceeding to develop the luminescent signal. The signal developer, CellTiter-Glo Reagent, was allowed to equilibrate at room temperature for 30 min and added to the plates (25uL per well) using a Multidrop Combi dispenser. Plates were left for 10 min at room temperature for stabilization and then read using a ViewLux.; assay type: toxicity, cell-based
Leishmania donovani [4] = assay: GSK_TCAKS: pIC50 Leishmania donovani Imaging: Amastigotes/Macrophages. Assay plates (384-well) were prepared by adding 250nL of compound to each well. For single shot assay, the final compound concentration was 5 uM. […] Automated image analysis was performed with a script developed on Acapella High Content Imaging and Analysis Software (PerkinElmer). Output: Average number of amastigotes per macrophage cell were reported for each well.; assay type: functional, organism-based, Homo sapiens; conditions: THP-1
Trypanosoma cruzi [5] = assay: (§1) GSK_TCAKS: pIC50 Trypanosoma cruzi Imaging: Infected Cells. […] Cells were then washed once with PBS before infection. T. cruzi trypomastigotes, collected at days 5 to 8 after infection from LLC-MK2 parasite infected cultures, were allowed to swim out for 4h at 37C from a centrifuged pellet (2,500 rpm/10 min/room temperature). Trypomastigotes were then collected and counted in a CASY Cell Counter. Trypomastigotes, in supplemented DMEM, were added to H9c2 cultures in a multiplicity of infection of 1 and incubated for 18 h. Cells were washed once with PBS before incubation of the infected H9c2 monolayer with trypsin (Life-Technologies) to detach cells from the flask. Cells were counted in a CASY Cell Counter using a 150 um capillary and their density set at 5 * 10^4 cells per mL in supplemented assay DMEM. Infected H9c2 were dispensed into 384-well poly-lysine coated assay plates at 50uL per well using a Multidrop Combi dispenser. After seeding them, the plates were incubated at 37C, 5% CO2 for 72h. Cultures were then fixed and stained by addition of 50 uL of a solution containing 8% formaldehyde and 4 uM DRAQ5 DNA dye (BioStatus, UK) per well. […] Five images were collected per well for reliable statistical analysis. Automated image analysis was performed with a script developed on Acapella High Content Imaging and Analysis Software (PerkinElmer). Output: percentage of infected cells per well as a second infection marker.; assay type: functional, organism-based, Rattus norvegicus; conditions: H9c2, 4 h
[6] = tested on: Trypanosoma brucei brucei; assay: GSK_TCAKS: pIC50 Trypanosoma brucei viability assay using fluorescence intensity. Assay plates (1536-well) were prepared by dispensing 25nL of compound solution per well using an Echo acoustic dispenser (Labcyte).; assay type: functional, organism-based; conditions: Lister 427, 2 h
Trypanosoma cruzi [7] = assay: as §1, with “H2C9” for “Trypanosoma cruzi”, “H9c2 Host Cardiomyocytes.” for “Infected Cells.”, “Number” for “percentage”, “H9c2 Host Cardiomyocytes nuclei to determine drug-related cytotoxicity.” for “infected cells per well as a second infection marker.”; assay type: functional, organism-based, Rattus norvegicus; conditions: H9c2, 4 h
[8] = target: Sterol 14-alpha demethylase (Trypanosoma cruzi (strain CL Brener), UniProt Q7Z1V1); assay: GSK_TCAKS: pIC50 CYP51 from Trypanosoma cruzi.; assay type: functional
[9] = tested on: Trypanosoma brucei brucei; assay: GSK_TCAKS: pIC50 Trypanosoma brucei viability assay using luminiscence. Assay plates (1536-well) were prepared. T. brucei cultures were harvested and counted in a CASY cell counter. A parasite suspension was prepared at a final concentration of 5 * 10^4 cells/mL in complete HMI9 medium and 6uL was dispensed to all wells containing compounds using a Multidrop Combi dispenser. 6uL of HMI9 media with 0.4% DMSO were dispensed to control columns. Plates were incubated for 24 h at 37C, 5% CO2 then tempered for 10 min at room temperature. ATP content was quantified by adding 4 uL of CellTiter-Glo Reagent (Promega) according to the manufacturer's instructions. Luminescence was measured using a ViewLux.; assay type: functional, organism-based; conditions: Lister 427, CASY
Leishmania donovani [10] = assay: GSK_TCAKS: pIC50 Leishmania donovani viability assay using fluorescence intensity. Assay plates (1536-well) were prepared by adding 30nL per well of compound. For single shot assay, the final compound concentration was 5uM. […] Briefly, eGFP LdBOB axenic amastigotes were harvested, fixed and counted in a CASY cell counter (Roche-Applied Science). A final concentration of 1.5 * 10^5 cells per well were prepared in amastigote media containing 500 U/mL penicillin/streptomycin (Invitrogen) and 6uL was dispensed to each experimental well using a Multidrop Combi dispenser (Thermo Scientific). 6uL of assay media was dispensed to control columns used as reference for 100% compound response. Following incubation for 72 h at 37C, 5% CO2, 2 uL of resazurin was added to each well at a final concentration of 0.5 mM in phosphate buffered saline (PBS) with IGEPAL (Sigma-Aldrich), 0.05% (v/v).; assay type: functional, organism-based
Trypanosoma cruzi [11] = assay: GSK_TCAKS: pIC50 Trypanosoma cruzi viability assay using beta-GAL activity. This assay was run at single shot at 5uM compound concentration per well. The biological reagents consisted of NIH-3T3 host cells and trypomastigotes parasitic cells; both cell types were set to a 3.3 * 10^5 cells/mL dilution in assay DMEM by means of a CASY cell counter device using a 60um capillary. 6 uL of the mixture were dispensed per well (about 1 * 10^3 host-cells and 1 * 10^3 parasites) with a Multidrop Combi dispenser. […] In all wells, the percentage of DMSO never exceeded 0.5%. Plates incubated for four days at 37C, 5% CO2. The substrate used for the assay fluorescence intensity (FLINT) readout was resorufin-beta-D-galactopiranoside (Sigma-Aldrich) at 5uM per well. It was diluted in PBS supplemented with the soft detergent Igepal (Fluka).; assay type: functional, organism-based, Mus musculus; conditions: Tulahuen, NIH3T3
Trypanosoma cruzi [12] = assay: GSK_TCAKS: pIC50 Trypanosoma cruzi Imaging: Amastigotes/Cell. […] Cells were then washed once with PBS before infection. T. cruzi trypomastigotes, collected at days 5 to 8 after infection from LLC-MK2 parasite infected cultures, were allowed to swim out for 4h at 37C from a centrifuged pellet (2,500 rpm/10 min/room temperature). Trypomastigotes were then collected and counted in a CASY Cell Counter. Trypomastigotes, in supplemented DMEM, were added to H9c2 cultures in a multiplicity of infection of 1 and incubated for 18 h. Cells were washed once with PBS before incubation of the infected H9c2 monolayer with trypsin (Life-Technologies) to detach cells from the flask. Cells were counted in a CASY Cell Counter using a 150 um capillary and their density set at 5 * 10^4 cells per mL in supplemented assay DMEM. Infected H9c2 were dispensed into 384-well poly-lysine coated assay plates at 50uL per well using a Multidrop Combi dispenser. After seeding them, the plates were incubated at 37C, 5% CO2 for 72h. Cultures were then fixed and stained by addition of 50 uL of a solution containing 8% formaldehyde and 4 uM DRAQ5 DNA dye (BioStatus, UK) per well. […] Five images were collected per well for reliable statistical analysis. Automated image analysis was performed with a script developed on Acapella High Content Imaging and Analysis Software (PerkinElmer). Output: number of amastigotes per cell as infection level measurement.; assay type: functional, organism-based, Rattus norvegicus; conditions: H9c2, 4 h

Chain of Sterol 14-alpha demethylase (Q7Z1V1 whole entry): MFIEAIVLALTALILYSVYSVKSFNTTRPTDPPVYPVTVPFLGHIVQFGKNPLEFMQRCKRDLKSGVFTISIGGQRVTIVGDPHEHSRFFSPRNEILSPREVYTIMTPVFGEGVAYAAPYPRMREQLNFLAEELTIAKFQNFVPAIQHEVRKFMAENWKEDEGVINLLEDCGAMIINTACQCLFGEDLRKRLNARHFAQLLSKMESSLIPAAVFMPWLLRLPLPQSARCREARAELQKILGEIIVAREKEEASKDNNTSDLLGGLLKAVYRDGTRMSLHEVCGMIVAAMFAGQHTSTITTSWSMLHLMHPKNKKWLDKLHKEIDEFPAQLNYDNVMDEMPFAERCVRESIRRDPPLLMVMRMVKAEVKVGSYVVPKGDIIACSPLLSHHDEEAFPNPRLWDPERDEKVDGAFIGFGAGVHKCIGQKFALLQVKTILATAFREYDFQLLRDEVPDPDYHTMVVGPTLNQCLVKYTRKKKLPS

Row | SMILES | IC50 (Leishmania donovani [1]) [µM] | IC50 (Leishmania donovani [2]) [µM] | IC50 at 48 h [3] [µM] | IC50 (Leishmania donovani [4]) [µM] | IC50 (Trypanosoma cruzi [5]) [µM] | IC50 [6] [µM] | IC50 (Trypanosoma cruzi [7]) [µM] | IC50 [8] [µM] | IC50 [9] [µM] | IC50 (Leishmania donovani [10]) [µM] | IC50 (Trypanosoma cruzi [11]) [µM] | IC50 (Trypanosoma cruzi [12]) [µM]
1 | Cc1cnc(Nc2cc(Cc3ccccc3)nc(N[C@H]3CC[C@H](O)CC3)n2)s1 | 0.0398 | 0.0251 | 25.1 | 0.0316 | 0.126 | 0.0251 | 0.0316 | > 100 | 0.0398 | 0.794 | 0.126 | 0.0501
2 | COc1cccc(-c2c(C)nn(-c3nc(N)nc(-c4ccccn4)n3)c2N)c1 | 2 | > 50.1 | > 100 | 1.58 | 2 | > 39.8 | > 50.1 | > 100 | > 39.8 | 5.01 | 2.51 | 0.501
3 | CC(C)c1nn(-c2nc(N)nc(-c3ccccn3)n2)c(N)c1C1CCCCC1 | 1 | 5.01 | 20 | 0.794 | 1.26 | 7.94 | 3.16 | 3.16 | 7.94 | 7.94 | 2 | 1.26
4 | Cc1nn(-c2nc(N)nc(-c3ccccn3)n2)c(C)c1Cc1ccccc1 | 3.16 | > 50.1 | > 100 | 2.51 | 3.16 | > 39.8 | 20 | 63.1 | 6.31 | 5.01 | 2.51 | 2
5 | Cc1occc1C(=O)Nc1ccccc1C(=O)Nc1nccs1 | > 50.1 | > 50.1 | > 100 | > 50.1 | > 50.1 | 0.398 | > 50.1 | > 100 | 0.501 | > 50.1 | > 50.1 | 31.6
6 | COc1cccc(CN(C)Cc2nc(N)c3c(C)c(C)sc3n2)c1 | 5.01 | 31.6 | 39.8 | 3.16 | 15.8 | 5.01 | > 50.1 | > 100 | 3.98 | 31.6 | 6.31 | 15.8
7 | CC(C)Nc1nc(Cl)nc2ccccc12 | 2.51 | 20 | 39.8 | 1.26 | 10 | 5.01 | 7.94 | > 100 | 12.6 | 20 | 3.98 | 3.98
8 | Cc1cc2nc(CN(C)Cc3ncccc3C)[nH]c2cc1C | 0.631 | 7.94 | 39.8 | 0.501 | 1 | 0.631 | 12.6 | 79.4 | 0.631 | 5.01 | 0.501 | 0.501
9 | CC(C)(C)CC(=O)NCc1noc(COc2ccccc2)n1 | > 50.1 | > 50.1 | > 100 | > 50.1 | 2.51 | 0.631 | > 50.1 | 50.1 | 0.794 | > 50.1 | 2.82 | 2.51
10 | O=C(Cn1cnc2c(-c3ccccc3)csc2c1=O)N1CCCCC1 | > 50.1 | > 50.1 | > 100 | > 50.1 | 3.98 | 0.794 | > 50.1 | 39.8 | 1 | > 50.1 | 3.55 | 3.16
11 | CN(CCOc1ccc(Cl)cc1)Cc1nc(N)nc(N(C)C)n1 | 7.94 | > 50.1 | > 100 | 5.01 | 10 | 25.1 | > 50.1 | 31.6 | 15.8 | 15.8 | 5.01 | 7.94
12 | Cc1cc(=O)n2nc(Oc3ccc(C#N)cc3Cl)sc2n1 | 31.6 | 31.6 | 39.8 | 31.6 | 31.6 | 0.631 | 31.6 | > 100 | 0.316 | 12.6 | 15.8 | 25.1
